The record followed here is patent US9205064B2, “Methods for the diagnosis of oncological disorders using epimetabolic shifters, multidimensional intracellular molecules, or environmental influencers” (Berg LLC, priority 2009, dated 2015).

The structures appear in SMILES notation.

The subject of experiment [1] is HepG2 (liver cancer) cells. The experiment is described as follows: Real-time PCR Diabetes Array. Type of experiment: cell-based. Here is the method: (§1) The treatment was initiated on 1×10^5 cells per well, following the procedure utilized in the PaCa2 cells (above, Examples 9-11). However, the total amount of RNA that was extracted from these samples was lower than expected. Reverse transcription is normally done using 1 μg of total RNA (determined by measurement at 260 nm). The maximum volume that can be used per reverse transcription is 8 μl.

The test system of experiment [2] is SCC cells. The experiment is described as follows: 2-D gel electrophoresis proteomic analysis with mass spectrometry identification. The settings on record: 100 μM Q10, 24 hr. The experiment is classed as cell-based. The text has this:
The gels were run in duplicate.

For experiment [3], the system named is Lactate Dehydrogenase (LDH). Nature of the experiment: Western blot of lactate dehydrogenase levels. The experiment is classed as cell-based, human. The settings on record: cancer cells. As for the experimental part: The samples were processed and run on a 4-12% Bis-Tris Novex NuPAGE gel as described above. The gels were run, transferred and stained essentially as described above.
After transfer each blot was dried for 15-20 minutes, activated with methanol for 5 seconds, washed with water for 5 minutes, and TBST for 15 minutes. The blots were blocked for 1 hour with 5% blocking reagent in TBS-T at room temperature and then washed 3 times with TBS-T (1×-15′; 2×5′ each) and probed with the primary antibody for Lactate Dehydrogenase (abcam ab2101; polyclonal) in 5% BSA (at 1:1000 dilutions) by incubation overnight at 4 deg C. with shaking. After the overnight incubation with primary antibody for Lactate Dehydrogenase, the blots were washed 3 times with TBS-T (1×-15′; 2×5′ each) and probed with the secondary antibody (rabbit antigoat; 1:10,000 dilution) for 1 h at room temperature. After 1 h of incubation with secondary antibodies, the blots were washed 3 times with TBS-T (1×-15′; 2×5′ each) and then incubated with ECF reagent for 5 mins and then each blot scanned with 5100 Fuji Laser scanner at 25 uM resolution, 16 bit, green laser, at 400V and at 500 V. […]
The levels of LDH and PDH were determined by probing the blots successively with primary antibodies for LDH and PDH, essentially as described above. […]
Background: A western blot detects proteins with antibodies after separation by electrophoresis.

Experiment [4] has as its system variety of cell types. Nature of the experiment: Western blot analysis (Bcl-xL, Vimentin, oxidative phosphorylation complexes, mitochondrial membrane integrity proteins). The settings on record: 50 or 100 μM Q10. Type of experiment: cell-based. Here is the method:
Approximately 50 μg of protein were assayed per sample by immunoblotting. All treatments were run in triplicate with controls. […] The primary antibodies were incubated overnight at 4 degrees C. in a 5% BSA and TBST solution. Secondary antibodies were incubated for one hour at 4 degrees. All antibodies were purchased from Cell Signaling Technology. Antibodies were used at a ratio of 1:1000, with the exception of βActin at a ratio of 1:5000. Blots were developed and results were quantified using the NIH Java based densitometer analysis software Image J. All blots were also probed for and normalized to their respective βActin expression.
The first experiment processed and evaluated by Western blot and 2-D gel electrophoresis was carried out on the skin cancer cell line SKMEL-28.
A variety of cell types were evaluated by Western blot analysis against an antibody for Bcl-xL (FIG. 14), an antibody for Vimentin (FIG. 15), a series of antibodies for mitochondrial oxidative phosphorylation function (FIGS. 16-21) and against a series of antibodies related to mitochondrial membrane integrity (FIGS. 22-27).

The subject of experiment [5] is HepG2 (liver cancer) cells. Nature of the experiment: Real-time PCR Apoptosis Array. The experiment is classed as cell-based. Here is the method: as §1
However, the array for 48 hours was run choosing FAM as the fluorophore instead of SYBR. Both FAM and SYBR fluoresce at the same wavelength.

In the case of `COC1=C(OC)C(=O)C(C/C=C(\C)CC/C=C(\C)CC/C=C(\C)CC/C=C(\C)CC/C=C(\C)CC/C=C(\C)CC/C=C(\C)CC/C=C(\C)CC/C=C(\C)CCC=C(C)C)=C(C)C1=O` [Q10, Coenzyme Q10], the “genes regulated in the Diabetes Arrays” value was “PPARGC1A” in experiment [1] (100 μM Q10, PPARGC1A gene); “PRKAA1” in experiment [1] (100 μM Q10, PRKAA1 gene); “SNAP25” in experiment [1] (100 μM Q10, SNAP25 gene). For the same compound, the “HSP 70, spot 116: Response (further)” value in experiment [2] is reported as “decrease at 24 hr”. Also, the “NM23 protein (NME1), spot 54: Response” value in experiment [2] is reported as “decrease at 24 hr”. Further, the “Lactate Dehydrogenase (LDH) expression” value in experiment [3] was “reduced”. In addition, the “levels of examined proteins (Bcl-xL, Vimentin, oxidative phosphorylation and mitochondrial membrane integrity proteins)” value in experiment [4] is “upregulated or downregulated”. Further, the “genes regulated in the Apoptosis Arrays” value is “BAG1” in experiment [5] (100 μM Q10, gene BAG1); “CASP9” in experiment [5] (100 μM Q10, gene CASP9); “TNFRSF1A” in experiment [5] (100 μM Q10, gene TNFRSF1A).
